In patent US20200030355A1, “COMBINATION THERAPY FOR TREATING CANCER” (Epizyme, Inc., priority 2014, published 2020):
“Also recorded” adds a separate entry of the source. Read-outs that look alike come from different tables or passages of the source.

Tests used:
ML-2 (MLL-AF6) = assay: EPZ-5676 7-day pre-treatment, then second compound 72 hours, growth inhibition GI100 shift (Example 7); assay type: cell-based
Method: (§1) Cells were then equilibrated in incubators for 24 hours before treatment with a second compound. Treated assay plates were incubated with a second compound for 72 hours. After this time, plates were developed for endpoint analysis using ATPLite to measure ATP content, which is used as an indicator of cell viability.
(§2) Cells were then treated with a second compound for 72 hours. After this time, plates were developed for endpoint analysis using Cell Titer Glo to measure ATP content, which is used as an indicator of cell viability.
(§3) “N/D” means the GI100 of the second compound could not be determined for both conditions and “-” means not tested.
(§4) Growth Inhibition (GI) as a measure of cell viability: The cell viability of vehicle was measured at the time of dosing the second agent (T0) and after seventy-two hours (T72). […] A GI 200% represents complete death of all cells in the culture well. Compounds reaching an activity plateau of GI 200% are considered cytotoxic. GI is calculated by applying the following test and equation: […]
(§5) where T is the signal measure for a test article, V is the vehicle-treated control measure, and V0 is the vehicle control measure at time zero.

MOLM-13 (MLL-AF9) [1] = assay: Combination proliferation study with Compound A2 (ATP/CellTiter-Glo, Chou-Talalay combination index); assay type: cell-based, human
Outline: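 Viability by CellTiter-Glo ATP luminescence; Fa relative to DMSO controls. Combination index by Chou-Talalay (CI<1 synergy, =1 additive, >1 antagonism).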

OCI-AML-4 (MLL-ENL) = assay: EPZ-5676 7-day pre-treatment, then second compound 72 hours, growth inhibition GI100 shift; primary screen and retest (Example 7); assay type: cell-based
Method: as §1, §2, §3, §4, §5

MOLM-13 (MLL-AF9) [2] = assay: as above; assay type: cell-based, human
SKM-1 (non-MLLr) = assay: as above; assay type: cell-based, human; conditions: 300 nM EPZ-5676 7-day pre-treatment
MOLM-13 cells [3] = assay: Cell cycle / sub-G1 flow cytometry; assay type: cell-based, human; conditions: 156 nM Compound A2 plus 63 nM Ara-C, 10 and 14 days
Method: (§6) A Guava EasyCyte HT™ flow cytometer was used to measure DNA content, Annexin V staining and cell surface expression of CD14 and CD11b markers on Days 10 and 14.
(§7) On Day 0 MOLM-13 cells are seeded at 3,000 cells/mL. On Day 7 and Day 10 MOLM-13 cells are counted and reseeded at 50,000 cells/mL. […] On Day 10 They were redosed again. On Day 14 the experiment was terminated. Cells were sampled for CD14 and CD11b analysis on Days 7, 10 and 14.
(§8) To evaluate the fraction of cells in each cell cycle, flow cytometric analysis was performed. FACS analysis for detection of cell death by apoptosis, and cell cycle was performed.
(§9) Cells were harvested on days 7, 10 and 14 and split to allow simultaneous analysis of cell cycle and Annexin V staining. Apoptosis was determined using the Guava Nexin Assay (Millipore 4500-0450) and cells were prepared according to the manufacturer's recommendations. Samples were analyzed using the Guava EasyCyte Plus System (Millipore). Cells for cell cycle analysis were pelleted by centrifugation at 200×g for 5 minutes at 4° C., washed twice with ice cold PBS then fixed with 70% ice cold ethanol. All samples were analyzed together at end of experiment. Following fixation cells were washed with PBS and stained with the Guava cell cycle reagent (Millipore 4500-0220) for 30 minutes. Samples were analyzed using the Guava EasyCyte Plus System (Millipore).

[4] = system: SKM-1 (non-MLL-rearranged AML); assay: Combination proliferation study with Compound A2 (ATP/CellTiter-Glo, Chou-Talalay combination index); assay type: cell-based, human
Method: (§10) Graphs representing values of combination index (CI) versus Fractional effect (Fa) known as Fa-CI plots were generated and synergy was evaluated.
as §10
(§11) The HP-D300 digital dispenser (Tecan) was used to dispense compounds in a combinatorial matrix. […] Cell viability was measured via ATP content using CellTiter-Glo® (Promega).
(§12) Viability was determined using CellTiter-Glo® (Promega).
MV4-11 cells were maintained in IMDM supplemented with 10% fetal bovine serum. MOLM-13 and SKM-1 cells were maintained in Roswell Park Memorial Institute medium (RPMI) supplemented with 10% fetal bovine serum. They were cultured in flasks or plates in a humidified 5% CO2 atmosphere.
Proliferation studies were performed using MOLM-13, MV4-11 and SKM-1 cell lines in vitro to evaluate the cancer cell killing effect of a combination of two agents together on cell growth. Initial proliferation studies were performed to determine the IC50 values of a given compound in each cell line. The cell counts were measured by ATP quantitation using the Promega Cell Titer Glo kit and luminescence values correspond to the amount of ATP in a given well.
Compounds evaluated for synergy in the co-treatment phase were tested in a range which was bracketed around the IC50's. The compounds were plated to a 96 well plate in a matrix format which includes increasing concentrations of each drug in the combination in a constant ratio, in addition to the effect of each compound alone in the study. Cells were seeded and grown in the log-linear phase for 3 or 7 days in the cotreatment phase. Maximum and minimum inhibition (DMSO alone) controls were used in each plate to calculate fraction affected (Fa) of a test well. DMSO concentration was kept at 0.1% v/v. The drug combination analysis was performed utilizing the Chou-Talalay method. Synergy was determined using the software package Calcusyn by Biosoft. The combination index (CI) is the term used to describe the level of synergy or antagonism in a given test system. A combination index less than one indicates synergy, and a CI greater than one indicates antagonism.
The drug combination analysis was performed using the Chou-Talalay method. Graphs representing values of combination index (CI) versus Fractional effect (Fa) known as Fa-CI plots were generated and synergy was evaluated.

MV4-11 (MLL-AF4) = assay: as above; assay type: cell-based, human; conditions: for Combination with Compound A2, MV4-111 MLL-AF4: Table 2, Example 3
KOPM-88 (MLL-PTD) = assay: Combination proliferation study with Compound A2; assay type: cell-based, human
Method: as §11, §12

EOL-1 (MLL-PTD) = assay: Combination proliferation study with Compound A2; assay type: cell-based, human
Method: as §11, §12

MOLM-13 cells [5] = assay: Apoptosis by Annexin V flow cytometry (Guava Nexin); assay type: cell-based, human
Method: as §6, §7, §8, §9

MOLM-13 cells [6] = assay: CD11b and CD14 differentiation marker expression by flow cytometry; assay type: cell-based, human; conditions: single agents
Method: as §6, §7
On day 7, 10, and 14, cells were collected for analysis. The cells were prepared by washing twice in PBS, followed by fixation in 4% formaldehyde for ten minutes at 37° C. After fixation cells were washed and blocked with blocking buffer for 10 minutes at room temperature. Cells were then incubated in presence of anti-CD14, anti-CD11b or anti-IgG antibody for 1 hour at room temperature while rotating. Cells were washed, re-suspended in PBS and 5,000 events were analyzed using ExpressPro software on the GuavaCyte Plus System.

[7] = 7 Day Cotreatment Model, Table 4
[8] = 300 nM EPZ-5676 7-day pre-treatment, second compound 72 hours, ATPLite
[9] = Table 2, Example 3, listed as cytarabine

CC(=O)Nc1cccc(-n2c(=O)n(C3CC3)c(=O)c3c(Nc4ccc(I)cc4F)n(C)c(=O)c(C)c32)c1 [Trametinib]
GI100 (ML-2 (MLL-AF6)): 0.001 | Combination with Compound A2, MOLM-13 (MLL-AF9) (MOLM-13 (MLL-AF9) [1]; [7]): Synergy (Drug synergy was statistically defined by CI values less than 1) | GI100 (OCI-AML-4 (MLL-ENL)): 0.009 | Combination with EPZ-5676, OCI-AML-4 (MLL-ENL) Primary screen (OCI-AML-4 (MLL-ENL); [8]): Synergy (considered synergistic if the GI100 (Growth inhibition 100) value of the second compound decreased by 2-fold or more when EPZ-5676 was added as compared to the DMSO control) | Combination with EPZ-5676, OCI-AML-4 (MLL-ENL) Retest (OCI-AML-4 (MLL-ENL); 300 nM EPZ-5676 7-day pre-treatment, second compound 72 hours, Cell Titer Glo): Synergy (considered synergistic if the GI100 (Growth inhibition 100) value of the second compound decreased by 2-fold or more when EPZ-5676 was added as compared to the DMSO control) | GI100 (MOLM-13 (MLL-AF9) [2]): 0.03 | Combination with EPZ-5676, MOLM-13 (MLL-AF9) Retest (MOLM-13 (MLL-AF9) [2]; 150 nM EPZ-5676 7-day pre-treatment, second compound 72 hours, Cell Titer Glo): Synergy (considered synergistic if the GI100 (Growth inhibition 100) value of the second compound decreased by 2-fold or more when EPZ-5676 was added as compared to the DMSO control) | Combination with EPZ-5676, MOLM-13 (MLL-AF9) Primary screen (MOLM-13 (MLL-AF9) [2]; [8]): Synergy (considered synergistic if the GI100 (Growth inhibition 100) value of the second compound decreased by 2-fold or more when EPZ-5676 was added as compared to the DMSO control) | Combination with EPZ-5676, SKM-1 (non-MLLr) Primary screen (SKM-1 (non-MLLr); ATPLite): Synergy (considered synergistic if the GI100 (Growth inhibition 100) value of the second compound decreased by 2-fold or more when EPZ-5676 was added as compared to the DMSO control) | Combination with EPZ-5676, SKM-1 (non-MLLr) Retest (SKM-1 (non-MLLr); Cell Titer Glo): Synergy (considered synergistic if the GI100 (Growth inhibition 100) value of the second compound decreased by 2-fold or more when EPZ-5676 was added as compared to the DMSO control)

Nc1ccn([C@@H]2O[C@H](CO)[C@@H](O)[C@@H]2O)c(=O)n1 [Ara-C, cytarabine]
sub-G1 cell population, combination with Compound A2 (MOLM-13 cells [3]): significant increase in the population of sub-G1 cells | Effect of Compound A2 on the antiproliferative activity of the second agent ([4]; SKM-1, non-MLL-rearranged, Example 5): did not affect | Combination with Compound A2, SKM-1 AML: Non-rearranged [4, 9]: did not act synergistically | Combination of Compound A2 and anti-cancer agent, MV4-11 (MV4-11 (MLL-AF4); 7 Day Cotreatment): Synergy (A combination index less than one indicates synergy) | Combination with Compound A2 when Compound A2 is washed out prior to the addition of the second agent (MV4-11 (MLL-AF4); MV4-11, pre-treatment model with Compound A2 washout): synergistic anti-proliferative activity was maintained | Combination with Compound A2, MV4-111 MLL-AF4 (MV4-11 (MLL-AF4)): Strong Synergy | Combination with Compound A2, MV4-111 MLL-AF4 (MV4-11 (MLL-AF4); listed as cytarabine): synergistically | Combination with Compound A2, KOPM-88 (MLL-PTD) (KOPM-88 (MLL-PTD); Table 3, Example 3): Synergy (Drug synergy was statistically defined by CI values less than 1) | Combination with Compound A2, EOL-1 (MLL-PTD) (EOL-1 (MLL-PTD); Table 3, Example 3): Synergy (Drug synergy was statistically defined by CI values less than 1) | Combination of Compound A2 and anti-cancer agent, MOLM-13 (MOLM-13 (MLL-AF9) [1]; 4 + 3 Model: Compound A2 pretreatment 4 days, then co-treatment 3 days): Synergy (A combination index less than one indicates synergy) | Combination of Compound A2 and anti-cancer agent, MOLM-13 (MOLM-13 (MLL-AF9) [1]; 7 Day Cotreatment): Synergy (A combination index less than one indicates synergy) | Combination with Compound A2, MOLM-13 (MLL-AF9) (MOLM-13 (MLL-AF9) [1]; [7]): Strong Synergy | Combination with Compound A2, reverse order of addition (MOLM-13 (MLL-AF9) [1]; MOLM-13, Ara-C 3 days, then cotreatment with Compound A2 7 days): Synergy | Combination with Compound A2, reverse order of addition with Ara-C washout (MOLM-13 (MLL-AF9) [1]; MOLM-13, Ara-C 3 days, washed out, then Compound A2 7 days): Combination benefit is maintained | Combination with Compound A2 when Compound A2 is washed out prior to the addition of the second agent (MOLM-13 (MLL-AF9) [1]; MOLM-13, pre-treatment model with Compound A2 washout): durable combination benefit; also recorded: synergistic anti-proliferative activity was maintained | Combination with Compound A2, MOLM-13 (MLL-AF9) (MOLM-13 (MLL-AF9) [1]; Table 2, Example 3): Synergy (Drug synergy was statistically defined by CI values less than 1) | Combination with Compound A2, MOLM-13 (MLL-AF9) (MOLM-13 (MLL-AF9) [1]; [9]): synergistically | Apoptosis, combination with Compound A2 (MOLM-13 cells [5]; 156 nM Compound A2 plus 63 nM Ara-C): enhance apoptosis | Induction of apoptosis, single agent (MOLM-13 cells [5]; 14 day treatment, 156 nM Compound A2 or 63 nM Ara-C): modest increase in apoptotic cell population

COc1cccc2c1C(=O)c1c(O)c3c(c(O)c1C2=O)C[C@@](O)(C(C)=O)C[C@@H]3O[C@H]1C[C@H](N)[C@H](O)[C@H](C)O1 [Daunorubicin]
Combination with Compound A2, SKM-1 AML: Non-rearranged [4]: did not act synergistically | Effect of Compound A2 on the antiproliferative activity of the second agent [4]: did not affect | Combination with Compound A2 when Compound A2 is washed out prior to the addition of the second agent (MV4-11 (MLL-AF4)): synergistic anti-proliferative activity was maintained | Combination with Compound A2, KOPM-88 (MLL-PTD) (KOPM-88 (MLL-PTD)): Synergy (key: Synergy: Drug synergy was statistically defined by CI values less than 1; Antagonistic: antagonism by CI>1; Additive: additive effect by CI equal to 1) | Combination with Compound A2, EOL-1 (MLL-PTD) (EOL-1 (MLL-PTD)): Synergy (key: Synergy: Drug synergy was statistically defined by CI values less than 1; Antagonistic: antagonism by CI>1; Additive: additive effect by CI equal to 1) | Combination with Compound A2, MOLM-13 (MLL-AF9) (MOLM-13 (MLL-AF9) [1]): Synergy (key: Synergy: Drug synergy was statistically defined by CI values less than 1; Antagonistic: antagonism by CI>1; Additive: additive effect by CI equal to 1) | Combination with Compound A2 when Compound A2 is washed out prior to the addition of the second agent (MOLM-13 (MLL-AF9) [1]): synergistic anti-proliferative activity was maintained | Differentiation markers CD11b and CD14 (MOLM-13 cells [6]): The same effect was observed
